Experimental data as given in the NIST ThermoML archive (doi:10.1021/je800110r).

Conditions: Liquid, Vibrating tube method

CCCCCCCCCC [decane]
Conditions | mass density [kg/m3]
293.15 K, 34214 kPa | 753.1
293.15 K, 34239 kPa | 753.1
293.15 K, 34259 kPa | 753.1
293.15 K, 34285 kPa | 753.1
293.15 K, 34303 kPa | 753.1
293.16 K, 19215 kPa | 743.7
293.16 K, 19235 kPa | 743.6
293.16 K, 19274 kPa | 743.8
293.16 K, 19292 kPa | 743.6
293.16 K, 19437 kPa | 743.9
293.16 K, 33877 kPa | 753
303.14 K, 364 kPa | 722.4
303.14 K, 380 kPa | 722.3
303.14 K, 402 kPa | 722.5
303.14 K, 424 kPa | 722.6
303.14 K, 441 kPa | 722.6
303.14 K, 462 kPa | 722.5
303.14 K, 488 kPa | 722.6
303.14 K, 520 kPa | 722.6
303.14 K, 547 kPa | 722.7
303.14 K, 571 kPa | 722.7
303.14 K, 602 kPa | 722.8
303.14 K, 632 kPa | 722.7
303.14 K, 677 kPa | 722.6
303.14 K, 720 kPa | 722.8
303.14 K, 760 kPa | 722.8
303.14 K, 810 kPa | 722.9
303.14 K, 862 kPa | 723
303.14 K, 904 kPa | 723
303.14 K, 946 kPa | 723
303.14 K, 997 kPa | 723
303.14 K, 1037 kPa | 723
303.14 K, 1220 kPa | 723.2
303.14 K, 1295 kPa | 723.2
303.14 K, 1434 kPa | 723.4
303.14 K, 1467 kPa | 723.4
303.14 K, 1497 kPa | 723.4
303.14 K, 1538 kPa | 723.5
303.14 K, 1586 kPa | 723.5
303.14 K, 1619 kPa | 723.4
303.14 K, 1670 kPa | 723.5
303.14 K, 1705 kPa | 723.5
303.14 K, 1760 kPa | 723.6
303.14 K, 1816 kPa | 723.7
303.14 K, 1856 kPa | 723.7
303.14 K, 1904 kPa | 723.8
303.14 K, 1955 kPa | 723.9
303.14 K, 1986 kPa | 724
303.14 K, 2021 kPa | 723.9
303.14 K, 2067 kPa | 723.9
303.14 K, 2099 kPa | 723.9
303.14 K, 2132 kPa | 723.9
303.14 K, 2177 kPa | 724
303.14 K, 2229 kPa | 724
303.14 K, 2270 kPa | 723.9
303.14 K, 2320 kPa | 724.1
303.14 K, 2376 kPa | 724.2
303.14 K, 2415 kPa | 724.1
303.14 K, 2455 kPa | 724.1
303.14 K, 2518 kPa | 724.3
303.14 K, 2560 kPa | 724.3
303.14 K, 2611 kPa | 724.3
303.14 K, 2680 kPa | 724.4
303.14 K, 2736 kPa | 724.4
303.14 K, 2782 kPa | 724.5
303.14 K, 2818 kPa | 724.6
303.14 K, 2834 kPa | 724.6
303.14 K, 3457 kPa | 725
303.14 K, 3518 kPa | 725.1
303.15 K, 1065 kPa | 723
303.15 K, 1099 kPa | 723.2
303.15 K, 1144 kPa | 723.2
303.15 K, 1175 kPa | 723.2
303.15 K, 1261 kPa | 723.3
303.15 K, 1325 kPa | 723.2
303.15 K, 1363 kPa | 723.2
303.15 K, 1385 kPa | 723.3
303.15 K, 2849 kPa | 724.6
303.15 K, 2899 kPa | 724.6
303.15 K, 2942 kPa | 724.7
303.15 K, 2968 kPa | 724.7
303.15 K, 3005 kPa | 724.8
303.15 K, 3039 kPa | 724.6
303.15 K, 3070 kPa | 724.7
303.15 K, 3105 kPa | 724.8
303.15 K, 3140 kPa | 724.8
303.15 K, 3167 kPa | 724.9
303.15 K, 3207 kPa | 724.8
303.15 K, 3250 kPa | 724.9
303.15 K, 3283 kPa | 725
303.15 K, 3333 kPa | 724.9
303.15 K, 3363 kPa | 725
303.15 K, 3400 kPa | 725
303.15 K, 3487 kPa | 725.1
303.15 K, 3503 kPa | 724.9
303.15 K, 3530 kPa | 725.1
303.15 K, 3542 kPa | 725
303.15 K, 3556 kPa | 725.2
303.15 K, 3568 kPa | 725.1
303.15 K, 3587 kPa | 725.2
303.15 K, 3606 kPa | 725.2
303.15 K, 3618 kPa | 725.1
303.15 K, 3637 kPa | 725.3
303.15 K, 3655 kPa | 725.2
303.15 K, 3668 kPa | 725.4
303.15 K, 3688 kPa | 725.3
303.15 K, 3707 kPa | 725.2
303.15 K, 3720 kPa | 725.3
303.15 K, 3735 kPa | 725.3
303.15 K, 3753 kPa | 725.3
303.15 K, 3770 kPa | 725.3
303.15 K, 3790 kPa | 725.3
303.15 K, 3808 kPa | 725.3
303.15 K, 3820 kPa | 725.3
303.15 K, 3840 kPa | 725.4
303.15 K, 3855 kPa | 725.4
303.15 K, 3871 kPa | 725.3
303.15 K, 3885 kPa | 725.3
303.15 K, 3902 kPa | 725.5
303.15 K, 3916 kPa | 725.5
303.15 K, 3938 kPa | 725.5
303.15 K, 3958 kPa | 725.4
303.15 K, 3974 kPa | 725.4
303.15 K, 3988 kPa | 725.4
303.15 K, 4013 kPa | 725.5
303.15 K, 4029 kPa | 725.5
303.15 K, 4042 kPa | 725.6
303.15 K, 4059 kPa | 725.5
303.15 K, 4074 kPa | 725.5
303.15 K, 4089 kPa | 725.6
303.15 K, 4104 kPa | 725.6
303.15 K, 4122 kPa | 725.6
303.15 K, 4137 kPa | 725.5
303.15 K, 4153 kPa | 725.7
303.15 K, 4172 kPa | 725.7
303.15 K, 4188 kPa | 725.7
